Marks after values point to notes of the source that are not given here.
Assays:
[1] = tested on: mouse monocyte macrophage type cells under RANKL stimulation; details: cited from earlier work
MC3T3-E1 cells = assay: Calcification of the osteoblast (ALP activity, alizarin red) in MC3T3-E1; assay type: cell-based, mouse
Description: MC3T3-E1 cells as the same as those used in Example 4 were used. In addition, 50 μg/ml of L-ascorbic acid and 10 mM β-Glycerophosphate (both from Sigma-Aldrich Japan Co. LLC.) were added to the basal medium employed in the Example 3 was used. Fargesin prepared in the Example 1 was added to the medium the concentration at 2 to 80 μM.
MC3T3-E1 was inoculated in each well of the 96 well plates at 4,000 cells/well, and then the plate was pre-cultured by using only basal mediums under the condition of 5% CO2 and 37 degree centigrade for 2 days. After that, the medium was exchanged to the medium containing 50 μg/ml of L-ascorbic acid, 10 mM β-Glycerophosphate, and fargesin, and it was incubated under the condition of 5% CO2 and 37 degree centigrade for 5 days. After the termination of the incubation, the measurement of ALP activity and the differentiated cells were observed as the same as those in Example 3.
Mineral deposition was stained by using 1% alizarin red observed as the bone calcification (Wako Pure Chemical Industries, Ltd.) according to the conventional method, and then it was observed as the bone calcification.

[2] = tested on: ovariectomized mouse (OVX mouse); assay: Bone formation in ovariectomized mouse (OVX mouse), dosing after bone resorption induction period, femur pQCT; assay type: in vivo; details: for Bone strength (polar coordinates torsion strength): compared to Control OVX group; for Bone density of cancellous bone, relative value / Bone density of cortical bone, relative value / Bone density of the whole bones, relative value: 5M Sham = 100; for Bone density of cancellous bone / Bone density of cortical bone / Bone thickness of cortical bone / Cross section area of cortical bone / Perimeter of cortical bone adventitia / Perimeter of cortical bone lining membrane / Bone density of the whole bones: OVX mice, 3 months dosing after 2-month induction; for Bone density of the whole bones: right femur, pQCT
Description: Four-week-old female Slc; ddy mice (Japan SLC, Inc.) were purchased, and they were divided into 8 groups without acclimate keeping (6 mice per group). They were anesthetized by using 50 mg/kg of pentobarbital to be ovariectomized (it is referred to as “OVX” herein below) or to have Sham operation (it is referred to as “Sham” herein below) under the anesthesia which is given by intraperitoneal administration of 50 mg/kg of Somnopentyl (pentobarbital sodium).
From the second day of the ovariectomy (or Sham operation), each group was maintained under the condition of 12 hour light/dark cycle, 23±3 degree centigrade as the room temperature, and humidity 55±5% for 2 months as the bone resorption induction period. The animal bedding was exchanged twice a week and all fresh bedding was used at all times. CRF-1 (Oriental Yeast Co., Ltd.) as the feed and deionized water as drinking water were freely given.
After two month period from the test start, the bone resorption induction period, the test substance were given to each group at the amount shown in the following Table 7 for 3 month.
Ninety % of MeOH fraction (Shin-i) obtained in Example 1 and Fargesin (may refer to “Far” thereafter) were respectively dissolved into TD solution at the concentration shown in Table 7, and then they were administrated per os.
Human PTH (1-34) (herein below, it is sometimes referred to as “hPTH (1-34)”) were dissolved in distilled water at the concentration of 80 μg/kg/day, and it was administrated subcutaneously.
After 3 month from the administration start, the mice belonging to all of the groups were weighed. They were anesthetized by using diethylether, and were collected their blood from their hearts, and then they were died. Then, organs such as the uterus, the white adipose tissue (WAT), the brown adipose tissue (BAT), the liver, the spleen, and both left and right lower extremities were removed. The left and right lower extremities were separated into the femurs and the tibias, and they were stored in 70% EtOH under the room temperature.
The muscles were removed from the obtained femur (right), and then its bone density and the like were measured by using pQCT employed in Example 1 under the following conditions.
Recognition of contour (CONTMODE): 2 (auto search of ROI)
Recognition method of cancellous bone: Surface & Area
Ration of cancellous bone area to all of the cross section areas: 35%
CORTMODE used in CORTBD: 1* * Voxels not larger than the standard value for distinguishing the cortical bone from the cancellous bone (threshold: threshold) were omitted. Each tissue weight was also measured.
TH value used in CORTBD: 690
Among the all data of cancellous bone density obtained from pQCT, both of the highest and the lowest data were deleted to obtain the Median. As to the other parameters were treated as the same as this, the graph was made with N=6. Statistical analysis was performed by using the Dennett's two-sided t test.

SMILES: COc1ccc([C@@H]2OC[C@H]3[C@@H]2CO[C@@H]3c2ccc3c(c2)OCO3)cc1OC [fargesin, Fargesin]
- phosphorylation of p38 and I-κB by RANKL stimulation ([1]; RANKL stimulation): inhibits the phosphorylation
- tartrate-resistant acid phosphatase activities ([1]; mouse monocyte macrophage type cells under RANKL stimulation, or marrow monocytoid cells in culture): dose-dependently inhibits
- Mineral deposition (calcification), alizarin red staining (MC3T3-E1 cells; 60 to 80 μM, MC3T3-E1): increased mineral deposition side
- activity at 2 µM (MC3T3-E1 cells; Mus musculus, 120 h, 2 μM, MC3T3-E1 with L-ascorbic acid and β-Glycerophosphate, 5 days, negative control = 100): 93.3 ± 2.6%
- activity at 6 µM (MC3T3-E1 cells; Mus musculus, 120 h, 6 μM, MC3T3-E1 with L-ascorbic acid and β-Glycerophosphate, 5 days, negative control = 100): 92.8 ± 1.6%
- activity at 20 µM (MC3T3-E1 cells; Mus musculus, 120 h, 20 μM, MC3T3-E1 with L-ascorbic acid and β-Glycerophosphate, 5 days, negative control = 100): 107 ± 3.8%
- activity at 60 µM (MC3T3-E1 cells; Mus musculus, 120 h, 60 μM, MC3T3-E1 with L-ascorbic acid and β-Glycerophosphate, 5 days, negative control = 100): 173 ± 13.7%
- activity at 80 µM (MC3T3-E1 cells; Mus musculus, 120 h, 80 μM, MC3T3-E1 with L-ascorbic acid and β-Glycerophosphate, 5 days, negative control = 100): 172 ± 12.2%
- Bone strength (polar coordinates torsion strength) ([2]; 2 mg administration group p.o.): significantly increased
- Bone strength (polar coordinates torsion strength) ([2]; 40 mg administration group p.o.): significantly increased
- Bone density of cancellous bone, relative value ([2]; Far 2: 2 mg/kg/day p.o.): 54.9
- Bone density of cortical bone, relative value ([2]; Far 2: 2 mg/kg/day p.o.): 92.7
- Bone density of the whole bones, relative value ([2]; Far 2: 2 mg/kg/day p.o.): 81.4
- Bone density of cancellous bone, relative value ([2]; Far 20: 20 mg/kg/day p.o.): 58.5
- Bone density of cortical bone, relative value ([2]; Far 20: 20 mg/kg/day p.o.): 92.9
- Bone density of the whole bones, relative value ([2]; Far 20: 20 mg/kg/day p.o.): 83.1
- Bone density of cancellous bone, relative value ([2]; Far 40: 40 mg/kg/day p.o.): 79.2
- Bone density of cortical bone, relative value ([2]; Far 40: 40 mg/kg/day p.o.): 90.4
- Bone density of the whole bones, relative value ([2]; Far 40: 40 mg/kg/day p.o.): 85.7
- Bone density of cancellous bone ([2]; Far 2: 2 mg/kg/day p.o.): 64.10 ± 25.48 mg/cm^2
- Bone density of cortical bone ([2]; Far 2: 2 mg/kg/day p.o.): 911.65 ± 30.15 mg/cm^2
- Bone thickness of cortical bone ([2]; Far 2: 2 mg/kg/day p.o.): 0.20 ± 0.03 mm
- Cross section area of cortical bone ([2]; Far 2: 2 mg/kg/day p.o.): 1.46 ± 0.23 mm^2
- Perimeter of cortical bone adventitia ([2]; Far 2: 2 mg/kg/day p.o.): 8.02 ± 0.26 mm
- Perimeter of cortical bone lining membrane ([2]; Far 2: 2 mg/kg/day p.o.): 6.79 ± 0.19 mm
- Bone density of the whole bones ([2]; Far 2: 2 mg/kg/day p.o.): 427.83 ± 36.00 mg/cm^2
- Bone density of cancellous bone ([2]; Far 20: 20 mg/kg/day p.o.): 68.22 ± 21.67 mg/cm^2
- Bone density of cortical bone ([2]; Far 20: 20 mg/kg/day p.o.): 914.57 ± 43.90 mg/cm^2
- Bone thickness of cortical bone ([2]; Far 20: 20 mg/kg/day p.o.): 0.20 ± 0.03 mm
- Cross section area of cortical bone ([2]; Far 20: 20 mg/kg/day p.o.): 1.48 ± 0.18 mm^2
- Perimeter of cortical bone adventitia ([2]; Far 20: 20 mg/kg/day p.o.): 8.04 ± 0.55 mm
- Perimeter of cortical bone lining membrane ([2]; Far 20: 20 mg/kg/day p.o.): 6.78 ± 0.68 mm
- Bone density of the whole bones ([2]; Far 20: 20 mg/kg/day p.o.): 437.00 ± 49.48 mg/cm^2
- Bone density of cancellous bone ([2]; Far 40: 40 mg/kg/day p.o.): 92.37 ± 41.29 mg/cm^2
- Bone density of cortical bone ([2]; Far 40: 40 mg/kg/day p.o.): 889.97 ± 23.31 mg/cm^2
- Bone thickness of cortical bone ([2]; Far 40: 40 mg/kg/day p.o.): 0.21 ± 0.02* mm
- Cross section area of cortical bone ([2]; Far 40: 40 mg/kg/day p.o.): 1.56 ± 0.19* mm^2
- Perimeter of cortical bone adventitia ([2]; Far 40: 40 mg/kg/day p.o.): 8.14 ± 0.39 mm
- Perimeter of cortical bone lining membrane ([2]; Far 40: 40 mg/kg/day p.o.): 6.83 ± 0.38 mm
- Bone density of the whole bones ([2]; Far 40: 40 mg/kg/day p.o.): 450.57 ± 33.72 mg/cm^2

Reference: patent US20130253048A1, “Pharmaceutical Composition for Promoting Osteogenesis Containing Axial-equatorial Aryl-oriented Furofuran-type Lignan, and Pharmaceutical Preparation, Functional Food Product, and Health Food Product Comprising Composition” (ERINA CO., INC., priority 2010, published 2013)
